Data reported in US4568490A, “Aminopropylaminobleomycin derivatives and process for preparation thereof” (Zaidan Hojin Biseibutsu Kagaku Kenkyu Kai, priority 1981, dated 1986).

Experiments:
ICR strain mice = assay: Pulmonary toxicity (pulmonary fibrosis) in mice, intraperitoneal injection; assay type: in vivo; settings: 5 mg/kg i.p. once a day for 10 days; for Grade of pulmonary fibrosis, % / Incidence of pulmonary fibrosis, % / Incidence: number of mice suffering from pulmonary fibrosis / Grade: total score of pulmonary fibrosis/total number of test animal: autopsy after 5 weeks; for Incidence: number of mice suffering from pulmonary fibrosis: affected/total mice; for Grade: total score of pulmonary fibrosis/total number of test animal: score 0-6 points; for Grade of pulmonary fibrosis, Ratio / Incidence of pulmonary fibrosis, Ratio: reference of the ratio not stated
Experimental: (3) Pulmonary toxicity (pulmonary fibrosis) in mice.
ICR strain mice (male; 15 weeks old; 9 mice per group) were used. Each mouse was administered with a daily dose of 5 mg/kg of the test sample by intraperitoneal injection, once a day, for 10 consecutive days. After completion of the predetermined administration, the mice were kept for 5 weeks under observation, then slaughtered, and autopsied to examine the incidence and grade of pulmonary fibrosis. The evaluation was made by comparing the number of administered mice suffering from pulmonary fibrosis and the grade of the disease.
(§1) In Tables 4A and 4B, the grade was numerically rated as follows:
(§2) 1 point: Accumulation of exudate in pulmonary alveoli and fibrosis-like change in alveolar septum.
(§3) 2 points: Fibrosis in several areas.
(§4) 4 points: Scattered fibrosis.
(§5) 6 points: Fibrosis in more than two-thirds of the total area.

[1] = system: Mycobacterium smegmatis ATCC 607; assay: Antimicrobial activity, agar plate-cylinder method; assay type: cell-based; settings: Cu-free form; bleomycin A2 (Cu-free form) standard assumed 1,000 mcg/mg
Experimental: (§6) The activity was assayed against the above test microorganisms by the method of agar plate-cylinder, assuming the potency of bleomycin A2 (Cu-free form), used as standard, to be 1,000 mcg/mg.

[2] = system: Lymphocytic leukemia P-388; assay: In vivo antitumor activity, murine lymphocytic leukemia P-388; settings: BDF1-SLC mice, i.p. transplant, once daily for 9 days, 30 days observation; T/C more than 130 effective
Experimental: The following data with respect to the testing of a group of the presently claimed substances in vivo according to a standard test method involving murine lymphocytic leukemia P-388 is presented to lend further assurance as to the utility of the compounds as inhibitors of mammalian tumors.
Lymphocytic leukemia P-388 cells (1×10^5 /0.2 ml) were transplanted intraperitoneally into male BDF1 -SLC mice (5 mice/group). Each of the compounds of this invention was diluted with physiological saline to various concentrations. Each dilution was administered at a dose of 0.1 ml/10 g of body weight once daily for 9 days, starting on the day after the day of the transplantation. The mice of the control group were administered physiological saline.
The average number of days that the group receiving the compound of this invention survived was calculated. The figure obtained was divided by the average number of survival days for the control group, and was multiplied by 100 (T/C (%)).
T/C value more than 130 was considered to be effective.

Hela S3 cells = assay: Growth inhibitory activity against Hela S3 cells; assay type: cell-based; settings: Cu-free form; Hela S3, 3 days incubation with compound
Experimental: The percentage growth inhibition was calculated using the equation: […] wherein A is the ultimate number of cells on the third day from the addition of a test sample, B is the ultimate number of cells in the control (without the addition of test sample), and C is the number of cells on the day of addition of the test sample.

Bacillus subtilis = assay: Antimicrobial activity, agar plate-cylinder method; assay type: cell-based; settings: Cu-free form; bleomycin A2 (Cu-free form) standard assumed 1,000 mcg/mg
Experimental: (1) Antimicrobial activity against Mycobacterium smegmatis ATCC 697 and Bacillus subtilis.
as §6

ICR mice = assay: Pulmonary toxicity (pulmonary fibrosis) in mice, intratracheal instillation; assay type: in vivo; settings: 16 μg/50 μl/mouse intratracheally, sacrificed 4 weeks after instillation; for Grade: total score of pulmonary fibrosis/total number of samples: score 0-6 points
Experimental: Male 15 weeks old ICR mice were used. Sixteen μg/50 μl/mouse of each test sample was intratracheally instilled. The mice were sacrificed 4 weeks after instillation to examine the incidence and grade of pulmonary fibrosis. The evaluation was made by comparing the number of administered mice suffering from pulmonary fibrosis and the grade of the disease.
as §1, §2, §3, §4, §5

Cc1c(N)nc(C(CC(N)=O)NCC(N)C(N)=O)nc1C(=O)NC(C(=O)NC(C)C(O)C(C)C(=O)NC(C(=O)NCCc1nc(-c2nc(C(=O)NCCCN(C)CCCNCC3CCCCCCC3)cs2)cs1)C(C)O)C(OC1OC(CO)C(O)C(O)C1OC1OC(CO)C(O)C(OC(N)=O)C1O)c1cnc[nH]1.Cl.Cl.Cl (centres unmarked) [Compound No. 22]
Grade of pulmonary fibrosis, % (ICR strain mice): 0% | Incidence of pulmonary fibrosis, % (ICR strain mice): 0% | Incidence: number of mice suffering from pulmonary fibrosis (ICR strain mice): 0/9 | Grade: total score of pulmonary fibrosis/total number of test animal (ICR strain mice): 0/27 | Grade of pulmonary fibrosis, Ratio (ICR strain mice): 0.000 | Incidence of pulmonary fibrosis, Ratio (ICR strain mice): 0.00 | Antimicrobial potency of Cu--free compound, against Mycobacterium smegmatis ATCC 607 [1]: 22860 mcg potency per mg | Max. T/C on Mouse Lymphocytic Leukemia P 388 [2]: 174% | 50% growth inhibition concentration (ID50) of Cu--free compound against cultured Hela cell (Hela S3 cells): 0.45 µg/mL | Antimicrobial potency of Cu--free compound, against Bacillus subtilis (Bacillus subtilis): 12300 mcg potency per mg

Cc1c(N)nc(C(CC(N)=O)NCC(N)C(N)=O)nc1C(=O)NC(C(=O)NC(C)C(O)C(C)C(=O)NC(C(=O)NCCc1nc(-c2nc(C(=O)NCCCN(CCCN(Cc3ccccc3)Cc3ccccc3)Cc3ccccc3)cs2)cs1)C(C)O)C(OC1OC(CO)C(O)C(O)C1OC1OC(CO)C(O)C(OC(N)=O)C1O)c1cnc[nH]1 (centres unmarked) [Compound No. 40, 3-{N--benzyl-N--[3'-(dibenzylamino)propyl]amino}propylaminoBLM]
Antimicrobial potency of Cu--free compound, against Mycobacterium smegmatis ATCC 607 [1]: 4450 mcg potency per mg | Max. T/C on Mouse Lymphocytic Leukemia P 388 [2]: 154% | 50% growth inhibition concentration (ID50) of Cu--free compound against cultured Hela cell (Hela S3 cells): 1.90 µg/mL | Antimicrobial potency of Cu--free compound, against Bacillus subtilis (Bacillus subtilis): 479 mcg potency per mg

Cc1c(N)nc(C(CC(N)=O)NCC(N)C(N)=O)nc1C(=O)NC(C(=O)NC(C)C(O)C(C)C(=O)NC(C(=O)NCCc1nc(-c2nc(C(=O)NCCC[N+](C)(C)CCC[N+](C)(C)CCCN(Cc3ccccc3)Cc3ccccc3)cs2)cs1)C(C)O)C(OC1OC(CO)C(O)C(O)C1OC1OC(CO)C(O)C(OC(N)=O)C1O)c1cnc[nH]1 (centres unmarked) [Compound No. 41, 3-{N,N--Dimethyl-N--[3'-(N,N--dimethyl-N--(3"-dibenzylaminopropyl)amino)propyl]amino}propylaminoBLM]
Grade of pulmonary fibrosis, % (ICR strain mice): 0% | Incidence of pulmonary fibrosis, % (ICR strain mice): 0% | Incidence: number of mice suffering from pulmonary fibrosis (ICR strain mice): 0/9 | Grade: total score of pulmonary fibrosis/total number of test animal (ICR strain mice): 0/27 | Grade of pulmonary fibrosis, Ratio (ICR strain mice): 0.00 | Incidence of pulmonary fibrosis, Ratio (ICR strain mice): 0.00 | Antimicrobial potency of Cu--free compound, against Mycobacterium smegmatis ATCC 607 [1]: 16000 mcg potency per mg | Max. T/C on Mouse Lymphocytic Leukemia P 388 [2]: 184% | 50% growth inhibition concentration (ID50) of Cu--free compound against cultured Hela cell (Hela S3 cells): 0.66 µg/mL | Antimicrobial potency of Cu--free compound, against Bacillus subtilis (Bacillus subtilis): 7100 mcg potency per mg

COc1ccc(CNCCCN(C)CCCNC(=O)c2csc(-c3csc(CCNC(=O)C(NC(=O)C(C)C(O)C(C)NC(=O)C(NC(=O)c4nc(C(CC(N)=O)NCC(N)C(N)=O)nc(N)c4C)C(OC4OC(CO)C(O)C(O)C4OC4OC(CO)C(O)C(OC(N)=O)C4O)c4cnc[nH]4)C(C)O)n3)n2)c(OC)c1 (centres unmarked) [compound 13, 3-{N--Methyl-N--[3'-(o,p-dimethoxybenzylamino)propyl]amino}propylaminoBLM]
Grade of pulmonary fibrosis, % (ICR strain mice): 11% | Incidence of pulmonary fibrosis, % (ICR strain mice): 33% | Incidence: number of mice suffering from pulmonary fibrosis (ICR strain mice): 2/6 | Grade: total score of pulmonary fibrosis/total number of test animal (ICR strain mice): 2/18 | Grade of pulmonary fibrosis, Ratio (ICR strain mice): 0.13 | Incidence of pulmonary fibrosis, Ratio (ICR strain mice): 0.53 | Antimicrobial potency of Cu--free compound, against Mycobacterium smegmatis ATCC 607 [1]: 5351 mcg potency per mg | 50% growth inhibition concentration (ID50) of Cu--free compound against cultured Hela cell (Hela S3 cells): 1.30 µg/mL | Grade of pulmonary fibrosis, % (ICR mice): 15% | Incidence of pulmonary fibrosis, % (ICR mice): 22% | Incidence: number of mice with pulmonary fibrosis/number of mice (ICR mice): 2/9 | Grade: total score of pulmonary fibrosis/total number of samples (ICR mice): 4/27 | Antimicrobial potency of Cu--free compound, against Bacillus subtilis (Bacillus subtilis): 5312 mcg potency per mg

Cc1c(N)nc(C(CC(N)=O)NCC(N)C(N)=O)nc1C(=O)NC(C(=O)NC(C)C(O)C(C)C(=O)NC(C(=O)NCCc1nc(-c2nc(C(=O)NCCCN(C)CCCNC(C)c3ccc(Cl)cc3)cs2)cs1)C(C)O)C(OC1OC(CO)C(O)C(O)C1OC1OC(CO)C(O)C(OC(N)=O)C1O)c1cnc[nH]1 (centres unmarked) [compound 14, 3-{N--Methyl-N--[3'-(1"-p-chlorophenylethylamino)propyl]amino}propylaminoBLM]
Grade of pulmonary fibrosis, % (ICR strain mice): 11% | Incidence of pulmonary fibrosis, % (ICR strain mice): 22% | Incidence: number of mice suffering from pulmonary fibrosis (ICR strain mice): 2/9 | Grade: total score of pulmonary fibrosis/total number of test animal (ICR strain mice): 3/27 | Grade of pulmonary fibrosis, Ratio (ICR strain mice): 0.13 | Incidence of pulmonary fibrosis, Ratio (ICR strain mice): 0.35 | Antimicrobial potency of Cu--free compound, against Mycobacterium smegmatis ATCC 607 [1]: 16959 mcg potency per mg | 50% growth inhibition concentration (ID50) of Cu--free compound against cultured Hela cell (Hela S3 cells): 0.52 µg/mL | Grade of pulmonary fibrosis, % (ICR mice): 24% | Incidence of pulmonary fibrosis, % (ICR mice): 57% | Incidence: number of mice with pulmonary fibrosis/number of mice (ICR mice): 4/7 | Grade: total score of pulmonary fibrosis/total number of samples (ICR mice): 5/21 | Antimicrobial potency of Cu--free compound, against Bacillus subtilis (Bacillus subtilis): 5459 mcg potency per mg

Cc1c(N)nc(C(CC(N)=O)NCC(N)C(N)=O)nc1C(=O)NC(C(=O)NC(C)C(O)C(C)C(=O)NC(C(=O)NCCc1nc(-c2nc(C(=O)NCCCN(C)CCCNCC(c3ccccc3)c3ccccc3)cs2)cs1)C(C)O)C(OC1OC(CO)C(O)C(O)C1OC1OC(CO)C(O)C(OC(N)=O)C1O)c1cnc[nH]1 (centres unmarked) [compound 17, 3-{N--Methyl-N--[3'-(2",2"-diphenylethylamino)propyl]amino}propylaminoBLM]
Grade of pulmonary fibrosis, % (ICR strain mice): 7% | Incidence of pulmonary fibrosis, % (ICR strain mice): 20% | Incidence: number of mice suffering from pulmonary fibrosis (ICR strain mice): 1/5 | Grade: total score of pulmonary fibrosis/total number of test animal (ICR strain mice): 1/15 | Grade of pulmonary fibrosis, Ratio (ICR strain mice): 0.08 | Incidence of pulmonary fibrosis, Ratio (ICR strain mice): 0.32 | Antimicrobial potency of Cu--free compound, against Mycobacterium smegmatis ATCC 607 [1]: 21084 mcg potency per mg | 50% growth inhibition concentration (ID50) of Cu--free compound against cultured Hela cell (Hela S3 cells): 1.00 µg/mL | Grade of pulmonary fibrosis, % (ICR mice): 7% | Incidence of pulmonary fibrosis, % (ICR mice): 22% | Incidence: number of mice with pulmonary fibrosis/number of mice (ICR mice): 2/9 | Grade: total score of pulmonary fibrosis/total number of samples (ICR mice): 2/27 | Antimicrobial potency of Cu--free compound, against Bacillus subtilis (Bacillus subtilis): 3554 mcg potency per mg

Cc1c(N)nc(C(CC(N)=O)NCC(N)C(N)=O)nc1C(=O)NC(C(=O)NC(C)C(O)C(C)C(=O)NC(C(=O)NCCc1nc(-c2nc(C(=O)NCCCN(C)CCCNCc3c4ccccc4cc4ccccc34)cs2)cs1)C(C)O)C(OC1OC(CO)C(O)C(O)C1OC1OC(CO)C(O)C(OC(N)=O)C1O)c1cnc[nH]1 (centres unmarked) [compound 21, 3-{N--Methyl-N--[3'-(9-anthramethylamino)propyl]amino}propylaminoBLM]
Antimicrobial potency of Cu--free compound, against Mycobacterium smegmatis ATCC 607 [1]: 13250 mcg potency per mg | Max. T/C on Mouse Lymphocytic Leukemia P 388 [2]: 148% | 50% growth inhibition concentration (ID50) of Cu--free compound against cultured Hela cell (Hela S3 cells): 0.80 µg/mL | Antimicrobial potency of Cu--free compound, against Bacillus subtilis (Bacillus subtilis): 4504 mcg potency per mg

Cc1c(N)nc(C(CC(N)=O)NCC(N)C(N)=O)nc1C(=O)NC(C(=O)NC(C)C(O)C(C)C(=O)NC(C(=O)NCCc1nc(-c2nc(C(=O)NCCC[N+](C)(C)CCCNCC3CCCCCCC3)cs2)cs1)C(C)O)C(OC1OC(CO)C(O)C(O)C1OC1OC(CO)C(O)C(OC(N)=O)C1O)c1cnc[nH]1 (centres unmarked) [compound 36, 3-{N,N--Dimethyl-N--[3'-(cyclooctylmethylamino)propyl]amino}propylaminoBLM]
Antimicrobial potency of Cu--free compound, against Mycobacterium smegmatis ATCC 607 [1]: 21840 mcg potency per mg | Max. T/C on Mouse Lymphocytic Leukemia P 388 [2]: 150% | 50% growth inhibition concentration (ID50) of Cu--free compound against cultured Hela cell (Hela S3 cells): 0.29 µg/mL | Antimicrobial potency of Cu--free compound, against Bacillus subtilis (Bacillus subtilis): 20000 mcg potency per mg
